Measured values: publication PMC3073003, “Peptide-Modified Surfaces for Enzyme Immobilization” (PLoS ONE, 2011)
Ends that are not written are not given here.

Key:
β-galactosidase (β-Gal) [1] = target: T1, β-galactosidase (β-Gal) (Escherichia coli, UniProt P00722); type: binding, E. coli; parameters: biotin (chemical label by Sulfo-NHS-biotin on amines, about two per enzyme); purchased Sigma (St. Louis, MO); settings: for Binding affinity (Norm.): β-Gal bound to surface-modified microwells, 25 nM biotin-labeled β-Gal, ELISA, normalized to amine surface 8
Procedure: (§1) Peptides were conjugated to aminated microwell surfaces through the specific reaction between C-terminal cysteines and the maleimide-activated surfaces, as shown in Figure 1a. […] The microwell plate was then briefly washed with pure water three times. […] The reaction was incubated for 4 hours at room temperature, in the dark. After the conjugation reaction was complete, the microwells were washed for 5 minutes in 1× TBST, three times, followed by three washes in water. To immobilize the enzyme on peptide-modified surfaces, 30 µL of 25 nM biotin-labeled β-Gal was incubated in the peptide-modified microwells for two hours in 10 mM phosphate buffer, pH 7.3 with 100 µM MgCl2 and 0.05% Tween 20 (v/v%), at room temperature. The microwells were washed for 5 minutes in 1× TBST, three times, followed by three washes in phosphate buffer. […] Figures S8–10 in File S1 show the detailed optimization procedures for peptide-modified surfaces.
(§2) First, 30 µL of 2 mg/mL BS^3 prepared in 1× PBS, pH 7.4 was incubated with the aminated microwells for half an hour. Then, the microwells were briefly washed with nanopure water, three times, to remove unreacted BS^3 molecules. Finally, 30 µL of biotin-labeled β-Gal was incubated with the microwells for one hour, which were then washed three times in 1× TBST, followed by three washes in phosphate buffer.
(§3) The activity assay of surface-bound β-Gal was performed on a SpectraMax M5 96-well plate reader (Molecular Device, Sunnyvale, CA) by adding 100 µL of 100 µM RBG into the wells. The relative amount of surface-bound β-Gal was measured using an enzyme linked immunosorbant assay (ELISA). β-Gal was first labeled with biotin. Alkaline phosphatase-conjugated strepavidin (0.4 mg/ml) was diluted at 1∶1000 in 1× PBS, 0.05% (v/v) Tween 20. Next, 30 µL of streptavidin solution was added to the β-Gal-bound wells and incubated for one hour at room temperature. The streptavidin solution was then removed and the plate was washed three times with TBST buffer and three times with TBS buffer. Then, 200 µL of 1 mM PNPP was added to each well. The alkaline phosphatase activity was subsequently measured by reading the absorbance increase at 405 nm on the M5 plate reader. The β-Gal binding level was determined from the activity of alkaline phosphatase-conjugated strepavidin bound to the wells.

β-galactosidase (β-Gal) [2] = target: T1, β-galactosidase (β-Gal); type: biochemical, E. coli; parameters: biotin (chemical label by Sulfo-NHS-biotin on amines, about two per enzyme); purchased Sigma (St. Louis, MO); settings: for Specific activity (Norm.): total bound enzyme activity divided by total binding intensity; for Specific activity (Norm.) / Activity (Norm.): normalized to amine surface 8; for Activity (Norm.): β-Gal immobilized on surface-modified microwells, 25°C
Procedure: Figure 1 Enzyme immobilization on peptide-modified surfaces. (a) The overall process for conjugating peptides to aminated microwells through specific reactions between C-terminal cysteines and maleimide-activated surfaces. (b) Activity of β-Gal immobilized on different surfaces. 25 nM β-Gal is first incubated with modified microwells for one hour and then enzyme activity is measured at 25°C as a function of time using 100 µM Resorufin β-D-galactopyranoside as the substrate. YHNN, QYHH, RVFK, PASM and EFSN represent β-Gal bound to various peptide-modified surfaces (see text). […] AMINE represents enzyme bound noncovalently to an aminated surface. […] Each subunit is labeled with a unique color showing the symmetry of the β-Gal structure. […] The substrate-binding sites of β-Gal are circled with right color (Glu461, Met502, Tyr503 and Glu537) according to reference 16.
as §1, §2, §3

β-galactosidase (β-Gal) [3] = target: T1, β-galactosidase (β-Gal); type: binding, E. coli; parameters: biotin (chemical label by Sulfo-NHS-biotin on amines, about two per enzyme); purchased Sigma (St. Louis, MO); settings: for Enzyme binding (Norm.): microarray of 10,000 peptides, selection described in reference [13]
From the text: (§4) Peptide microarrays containing 132, 20-mer single-point variants of the YHNN peptide were generated using our established, in-house printing method. […] Synthesized peptides (70% purity) were purchased from Sigma. The last three carboxy-terminal positions of each peptide constituted a glycine-serine-cysteine (GSC) linker, used for conjugating the peptides to amino-silane surfaces through the C-terminal cysteine via a maleimide linker, Sulfo-SMCC (Pierce, Rockford, IL). A Telechem Nanoprint60 was used to spot approximately 500 pL of 1 mg/mL peptide prepared in 1× PBS for each feature on glass slides with 48 Telechem series SMP2 style 946 titanium pins.
(§5) Enzyme assays on the microarrays were performed as described in the previous work. […] The array was incubated with a solution containing 10 nM Alexa™ 647- labeled β-Gal for two hours, allowing the enzyme to bind with peptides on the array surface. After washing off unbound enzymes, a fluorescent substrate analogue (FDG) was mixed with a 5% PVA solution and spin-coated onto the array surface for monitor the enzyme activity. The FDG molecules (substrate) in the PVA layer were converted to fluorescein (product), by the active enzymes bound to specific peptides on the array surface. The fluorescein molecules remained localized because of the PVA viscosity. Both the relative binding level of Alexa™ 647-labeled enzyme and the relative amount of fluorescein produced during the incubation period were determined by dual color scanning. Each array experiment was repeated at least three times under the same conditions for statistical analysis.

β-galactosidase (β-Gal) [4] = target: T1, β-galactosidase (β-Gal); type: biochemical, E. coli; parameters: biotin (chemical label by Sulfo-NHS-biotin on amines, about two per enzyme); purchased Sigma (St. Louis, MO); settings: for Enzyme activity (Norm.) / Surface specific activity (Norm.): microarray of 10,000 peptides; for Enzyme activity (Norm.): selection described in reference [13]; for Surface specific activity (Norm.): total bound enzyme activity divided by total binding intensity
From the text: as §4, §5

β-galactosidase (β-Gal) [5] = target: T1, β-galactosidase (β-Gal); experiment: biochemical; type: binding, E. coli; parameters: biotin (chemical label by Sulfo-NHS-biotin on amines, about two per enzyme); purchased Sigma (St. Louis, MO)
Procedure: as §3

β-galactosidase (β-Gal) [6] = target: T1, β-galactosidase (β-Gal); type: biochemical, E. coli; parameters: biotin (chemical label by Sulfo-NHS-biotin on amines, about two per enzyme); purchased Sigma (St. Louis, MO); settings: read-out: apparent Km of β-Gal; peptide-modified iodoacetyl resin or free enzyme, ~150 pM enzyme, RBG 3-400 µM, 25 °C
Procedure: The determination of the enzyme kinetic constants (KM and kcat) of immobilized β-Gal was performed on peptide-modified iodoacetyl polyacrylamide resin (UltraLink, Pierce, 50–80 µm diameter). To modify the bead surface with peptide, peptide solutions were incubated with iodoacetyl resin for one hour in 50 mM Tris buffer, 5 mM EDTA, pH 8.5. The unreacted iodacetyl groups were then capped with 50 mM L-cysteine. The amount of peptide immobilized on a bead surface was determined by comparing the peptide concentration of the unbound fraction (the remaining free peptide concentration after binding to the surface) to the starting concentration through absorbance changes at 280 nm. β-Gal was captured on the peptide-modified beads using the same protocol which immobilized the enzyme in the microwells, above. The amount of bead-immobilized β-Gal was measured by comparing the protein concentration of the unbound fraction to the starting protein concentration, determined at 280 nm. KM and Vmax (and thus kcat, using the total enzyme concentration) of β-Gal immobilized on peptide-modified beads were determined by fitting the activity vs. substrate concentration curves in the GraphPad program using the fitting equation of “Y = Vmax*X/(Km+X)”.
Colored curves: Curve fit determining the Michaelis constants of β-Gal immobilized […]
The enzyme activities are measured as a function of the concentration of […]

β-galactosidase (β-Gal) [7] = target: T1, β-galactosidase (β-Gal)
Procedure: Figure 2 Point-variant screening of a lead peptide, YHNN. β-Gal was bound to a microarray containing 132 YHNN variants and its activity was measured. (a) The activity of bound β-Gal on microarrays as a function of the amount of enzyme bound to a particular variant feature at room temperature. […] All data is normalized to the binding and activity values for the lead peptide, YHNN. (b) Thermal-stability assay. β-Gal was bound to the microarray containing YHNN variants as in (a) at room temperature, followed by incubation in phosphate buffer at 55°C for one hour. Enzyme activity was then assayed at room temperature. […] (c) pH activity range assay. YHNN variant microarrays were bound to β-Gal as in (a) and incubated at room temperature in buffers with pHs ranging from 6 to 9 for one hour and then assayed for activity at the pH of incubation.
The library of single-point variants was also screened for enhanced thermal or pH stability of immobilized β-Gal. For thermal stability screening, enzyme was bound to microarrays containing the 132 single-point variants, at room temperature, and then the arrays were incubated at 55°C for one hour and assayed for activity at room temperature.

[8] = peptide conjugated to aminated microwell
[9] = peptide-modified aminated microwell
[10] = microarray of 132 single-point variants, room temperature

T1 sequence (P00722 2-1024): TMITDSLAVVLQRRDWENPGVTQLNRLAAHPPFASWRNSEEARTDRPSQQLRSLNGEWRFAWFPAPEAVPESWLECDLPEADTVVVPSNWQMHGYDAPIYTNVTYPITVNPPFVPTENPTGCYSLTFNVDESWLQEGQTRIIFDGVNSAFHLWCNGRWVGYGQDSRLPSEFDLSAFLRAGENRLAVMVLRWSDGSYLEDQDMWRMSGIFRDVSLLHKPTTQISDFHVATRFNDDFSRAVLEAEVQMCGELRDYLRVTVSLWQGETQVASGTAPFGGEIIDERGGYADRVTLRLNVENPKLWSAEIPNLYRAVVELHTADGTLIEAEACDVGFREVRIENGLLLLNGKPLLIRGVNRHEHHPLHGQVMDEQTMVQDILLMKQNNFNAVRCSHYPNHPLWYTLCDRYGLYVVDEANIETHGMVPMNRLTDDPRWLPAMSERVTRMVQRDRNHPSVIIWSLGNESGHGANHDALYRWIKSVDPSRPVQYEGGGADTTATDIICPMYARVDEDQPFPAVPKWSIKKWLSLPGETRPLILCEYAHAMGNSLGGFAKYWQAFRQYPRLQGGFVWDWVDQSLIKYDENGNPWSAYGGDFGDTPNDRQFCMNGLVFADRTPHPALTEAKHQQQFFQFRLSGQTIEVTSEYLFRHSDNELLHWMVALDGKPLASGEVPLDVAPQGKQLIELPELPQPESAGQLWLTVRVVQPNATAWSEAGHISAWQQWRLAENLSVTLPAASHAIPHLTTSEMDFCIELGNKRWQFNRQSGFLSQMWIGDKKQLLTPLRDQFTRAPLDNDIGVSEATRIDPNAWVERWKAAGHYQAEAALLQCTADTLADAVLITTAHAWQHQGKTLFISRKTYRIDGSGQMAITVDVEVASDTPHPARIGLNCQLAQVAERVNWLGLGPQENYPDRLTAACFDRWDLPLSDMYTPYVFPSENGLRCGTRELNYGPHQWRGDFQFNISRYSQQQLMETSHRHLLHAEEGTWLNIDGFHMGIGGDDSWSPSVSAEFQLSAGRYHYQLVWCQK

## EFSNPTAQVFPDFWMSDGSC
β-galactosidase (β-Gal) [1]
  Binding affinity (Norm.): 0.1±0.01
β-galactosidase (β-Gal) [2]
  Specific activity (Norm.): 0.4±0.1
β-galactosidase (β-Gal) [2]; 100 µM RBG
  Activity (Norm.): 0.05±0.01
β-galactosidase (β-Gal) [3]
  Enzyme binding (Norm.): 0.4
β-galactosidase (β-Gal) [4]
  Enzyme activity (Norm.): 0.7

## QYHHFMNLKRQGRAQAYGSC [QYHH]
β-galactosidase (β-Gal) [5]
  Kd: ~4 nM
β-galactosidase (β-Gal) [6]
  Km: 250 µM

## YHNNPGFRVMQANKLHHGSC [Peptide Q12A]
β-galactosidase (β-Gal) [7]; microarray incubated one hour at pH 6 and assayed at that pH
  specific activity increase of bound β-Gal compared to YHNN lead peptide at pH 6: 4.1 fold
β-galactosidase (β-Gal) [7]; microarray incubated one hour at pH 9 and assayed at that pH
  specific activity increase of bound β-Gal compared to YHNN lead peptide at pH 9: 2.8 fold

## YHNNPGFRYMQQNKLHHGSC [Peptide V9Y]
β-galactosidase (β-Gal) [1]; [8]
  binding of immobilized β-Gal relative to YHNN: ~2 fold
β-galactosidase (β-Gal) [2]; [8]
  specific activity of immobilized β-Gal relative to YHNN: ~2 fold
β-galactosidase (β-Gal) [2]; [9]
  total bound enzymatic activity relative to the NHS surface: ~12 fold
  total bound enzymatic activity relative to the amine surface: more than 5 fold
β-galactosidase (β-Gal) [2]; peptide-modified aminated microwell, 100 µM RBG
  total activity of the bound enzyme relative to YHNN: ~5 fold
β-galactosidase (β-Gal) [2]; single-point variants on aminated microwell surfaces
  total bound enzyme activity compared with YHNN: improvement
β-galactosidase (β-Gal) [3]; [10]
  binding of β-Gal relative to YHNN lead peptide: 1.5 fold
β-galactosidase (β-Gal) [4]; [10]
  specific activity of bound β-Gal relative to YHNN lead peptide: ~3 fold

## PASMFSYFKKQGYYYKLGSC
β-galactosidase (β-Gal) [1]
  Binding affinity (Norm.): 0.5±0.1
β-galactosidase (β-Gal) [2]
  Specific activity (Norm.): 0.5±0.1
β-galactosidase (β-Gal) [2]; 100 µM RBG
  Activity (Norm.): 0.3±0.06
β-galactosidase (β-Gal) [3]
  Enzyme binding (Norm.): 63.9
β-galactosidase (β-Gal) [4]
  Enzyme activity (Norm.): 2.3
  Surface specific activity (Norm.): 0.16

## YHNNPGFRVMQQNKLHHGSC [YHNN]
β-galactosidase (β-Gal) [5]
  Kd: ~5 nM
β-galactosidase (β-Gal) [6]
  Km: ~240 µM

## RVFKRYKRWLHVSRYYFGSC
β-galactosidase (β-Gal) [1]
  Binding affinity (Norm.): 0.9±0.05
β-galactosidase (β-Gal) [2]
  Specific activity (Norm.): 0.1±0.01
β-galactosidase (β-Gal) [2]; 100 µM RBG
  Activity (Norm.): 0.1±0.01
β-galactosidase (β-Gal) [3]
  Enzyme binding (Norm.): 50.3
β-galactosidase (β-Gal) [4]
  Enzyme activity (Norm.): 0.9
  Surface specific activity (Norm.): 0.08
